Results: patent publication US12668589B2, “N-formamidopyrazoline derivative as P2X3 receptor antagonist and use thereof” (HANGZHOU WESTAN PHARMACEUTICAL TECHNOLOGY CO., LTD, priority 2020, dated 2026)

Experiments:
human PAR-1 = target: T1, human PAR-1 (Homo sapiens, UniProt P25116); assay: Inhibitory activity against PAR-1, calcium ion flux fluorescence method (FLIPR); format: cell-based; details: HEK293/Ga15 cells expressing human PAR-1, TFLLR-NH2 10 μM, starting concentration 30 μM
T1 construct: host or cells: HEK293/Ga15 recombinant cell line
T1 sequence (P25116 22-425): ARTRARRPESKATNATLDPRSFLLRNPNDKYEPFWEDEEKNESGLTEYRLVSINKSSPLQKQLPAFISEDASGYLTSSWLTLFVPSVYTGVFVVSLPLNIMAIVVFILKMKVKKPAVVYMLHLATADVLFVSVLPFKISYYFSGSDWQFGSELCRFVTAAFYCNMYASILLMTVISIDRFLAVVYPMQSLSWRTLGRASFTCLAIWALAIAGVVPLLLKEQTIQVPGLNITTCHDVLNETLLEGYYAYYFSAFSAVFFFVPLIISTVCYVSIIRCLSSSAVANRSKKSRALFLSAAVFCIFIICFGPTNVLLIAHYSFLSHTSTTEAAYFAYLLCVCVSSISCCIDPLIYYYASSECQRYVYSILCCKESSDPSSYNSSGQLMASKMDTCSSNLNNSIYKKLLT

[1] = Stability in simulated gastric fluids and simulated intestinal fluids; format: in vitro ADME; details: 1.25 μM, 37° C., up to 5 hours, pH 1.3 with pepsin / pH 6.8 with trypsin; result in words
Procedure: An LC-MS/MS method, wherein A liquid phase method adopts a gradient elution method. Chromatographic Column: ACQUITY UPLC® BEH C18 (2.1 mm×50 mm, 1.7 μm); Flow Rate: 0.35 mL/min; Injection Volume: 1 μL; Column Temperature: 40° C.; Automatic Sampler Temperature: 10° C.; Mobile Phase Compositions: mobile phase A: 0.1% formic acid water, and mobile phase B: acetonitrile. Mass spectrometry conditions adopt an ESI source, and positive ion and multiple reaction monitoring (MRM) modes were used for mass spectrometry analysis.
Simulated gastric fluid and simulated intestinal fluid samples were taken, in which 1,200 μL of an acetonitrile solution containing an internal standard (5 ng/mL loratadine) was added. Even vortex mixing was conducted at 2,500 rpm. Centrifuging was conducted for 10 minutes at 20,000 rcf at 4° C. […] Contents of prototype drugs were detected by LC-MS/MS. […]
MassLynx V4.2 software was used for data collecting. After integration parameters were optimized, target chromatographic peaks were automatically integrated, individual chromatographic peaks were not allowed to be integrated separately or manually, and retention time and a peak area were calculated. Data was collected by MassLynx V4.2, and subjected to integration processing to obtain the retention time and the peak area, and a peak area ratio of an analyte to an internal standard was calculated. […]

IC50 (human PAR-1) [µM]	stability in artificial gastric and intestinal fluids [1]	SMILES
> 30	relatively stable	CCOC(=O)N(C)[C@H]1CN(C(=O)N[C@H](C)c2cnc(C(F)(F)F)nc2)N=C1c1ccc(C)cc1 [Compound 4, (S)-4-(N-methyl-N-ethoxycarbonylamino)-3-(4-methylphenyl)-N-((R)-1-(2-(trifluoromethyl)pyrimidin-5-yl)ethyl)-4,5-dihydro-1H-pyrazol-1-carboxamide]
> 30	relatively stable	Cc1ccc(C2=NN(C(=O)N[C@H](C)c3ccc(C(F)(F)F)nc3)C[C@@H]2N2CCOC2=O)cc1 [Compound 22]
